Reference: US7888523B2, “Preparation of platinum(II) complexes” (Platco Technologies (Proprietary) Limited, priority 2004, dated 2011)

Experiments:
[1] = Anti-cancer properties (test not specified); details: statement in words, no test details
[2] = tested on: breast cancer cells; experiment: Anticancer testing, inhibition of breast cancer cells; assay type: cell-based; details: 100 μM solution, medium containing 10 mM glutathione
Protocol: (§1) Anticancer testing on the halogenoplatinum(II) complex of Example 8 was performed and compared with cisplatin. […] The corresponding values for cisplatin are 85.6% and 93.2%. The corresponding data on cervical cancer cells are 88.5 and 95.9% at 10 and 100 μM solutions. The corresponding values for cisplatin are 85.4 and 95% respectively. A further study in which 100 μM solutions were used in a medium containing 10 mM glutathione, the halogenoplatinum(II) complex performed even better, viz.

[3] = tested on: colon cancer cells; experiment: Anticancer testing, inhibition of colon cancer cells; assay type: cell-based; details: for inhibition on colon cells: medium containing 10 mM glutathione
Protocol: as §1

[4] = tested on: cervical cancer cells; experiment: Anticancer testing, inhibition of cervical cancer cells; assay type: cell-based; details: for inhibition on cervical cancer cells: medium containing 10 mM glutathione
Protocol: as §1

Row | Compound | anti-cancer properties [1] | inhibition on breast cancer cells [2] | percentage inhibition on colon cancer cells ([3]; 10 μM solution) | percentage inhibition on colon cancer cells ([3]; 100 μM solution) | inhibition on colon cells ([3]; 100 μM solution) | percentage inhibition on cervical cancer cells ([4]; 10 μM solution) | percentage inhibition on cervical cancer cells ([4]; 100 μM solution) | inhibition on cervical cancer cells ([4]; 100 μM solution)
1 | CSCc1nccn1C.[Cl][Pt][Cl] [Pt(mmtei)Cl2, bis-chloro-(1-methyl-2-methylthiomethyl-imidazole)platinum(II)] | exceptional anti-cancer properties | 66.1% | 92.8% | 97.0% | 98.2% | 88.5% | 95.9% | 99.3%
2 | N.N.[Cl][Pt][Cl] [cisplatin, reference compound] | – | 14% | 85.6% | 93.2% | 48.0% | – | 95% | 58.6%
